Reference: patent US20250169496A1, “USE OF 2-AMINO-3-HYDROXY-3-METHYLBUTYRIC ACID AND/OR 2-AMINO-3-(4-HYDROXYPHENYL) BUTYRIC ACID” (NANJING TIANNONG BIOTECHNOLOGY CO., LTD., priority 2021, published 2025)

Assays:
[1] = tested on: tomato spotted wilt virus (TSWV); assay: Induced resistance of tobacco to infection of tomato spotted wilt virus; assay type: in vivo, Nicotiana benthamiana; conditions: for Viral protein content: tobacco leaves 3 d after inoculation, Western blot grayscale, relative
Experimental: Obtain the tomato spotted wilt virus from Yunnan Province, China, store the initial virus source in a −80° C. refrigerator, activate the virus by inoculating it by friction inoculation on Nicotiana benthamiana leaves, extract viral plasmids, transform them by Escherichia coli competent cells, spread them onto a resistant plate for culture, pick a single colony for PCR screening, select positive colonies for sequencing and subsequent plasmid extraction, add the plasmids with normal sequencing to agrobacterium competent cells, transform the agrobacterium by the electric shock method, spread the transformed agrobacterium solution on the corresponding resistance screening plate, and culture it at 28° C.(±1) for 48 h. Pick a single agrobacterium colony on the transformation plate, place it in 5 mL of LB medium with the corresponding resistance and culture it at 28° C. and 180 rpm overnight. Centrifuge at 6,000 rpm for 2 min, collect the bacteria, suspend the bacteria with a treatment buffer (10 mM MgCl2, 10 mM MES, 10 μM Acetosyringone) until the OD600 of the suspension is 0.5, treat it at 28° C. in a dark place for 3 h and keep it for future use.
Take 2-amino-3-hydroxy-3-methylbutyric acid, dissolve it with distilled water, then dilute the solution with distilled water by gradient into 0 nM, 0.1 nM, 1 nM and 10 nM solutions. Sow Nicotiana benthamiana seeds in a small pot, and culture them at 24(±1)° C., 12 h/12 h illumination for 5 weeks. Select healthy tobacco plants (plants with 8-10 leaves are appropriate), spray 2-amino-3-hydroxy-3-methylbutyric acid solutions at the above concentrations on leaves and stems twice at an interval of 24 h. After 24 hours, suck an agrobacterium solution at a uniform concentration with a 1 mL syringe, press the injection port of the syringe directly on a small hole on the back of a tobacco leaf, and slowly push the bacterial solution into the hole so that the whole leaf is soaked. Culture the soaked tobacco at 24(±1)° C. 12 h/12 h illumination. Observe under a microscope after 3 d and make record; meanwhile, take a sample, analyze the grayscale of protein bands by using Western blot and Image J software, and determine the relative protein content of virus in leaves. Observe the morbidity of the tobacco leaves after 15 days, record the disease index with reference to GB/T 23222-2008 Grade and Investigation Method of Tobacco Diseases and Insect Pests. The formula is as follows: […]
Grading standard of tomato spotted wilt viruses (grading survey with plant as a unit): • Level 0: No disease in the whole plant; • Level 1: The shoot and leaf veins are clear or the leaves are slightly mottled, and the diseased plant is not dwarfed obviously; • Level 3: One third of the leaves are mottled, but the leaves are not deformed, or the plant is dwarfed to more than three quarters of the normal plant height; • Level 5: One third to a half of the leaves are mottled, or a minority of leaves are deformed, or the main veins turn black, or the plant is dwarfed to two thirds to three quarters of the normal plant height; • Level 7: A half to two thirds of the leaves are mottled, or deformed or a minority of major lateral veins are dead, or the plant is dwarfed to a half to two thirds of the normal plant height; • Level 9: The leaves of the whole plant are mottled, or seriously deformed or dead, or the diseased plant is dwarfed to […] of the normal plant height.

[2] = tested on: wheat under drought stress; assay: Hydroponic wheat under drought stress (25% PEG-6000); assay type: in vivo; conditions: for Drought damage index / Dry weight, overground part / Dry weight, underground part / Fresh weight, overground part / Fresh weight, underground part / Root length: wheat, 6 d 25% PEG-6000, recovered 7 d; for Decrease of drought damage index / Increase of fresh weight of the overground part / Increase of fresh weight of the underground part / Increase of root length of wheat seedlings: compared to the control, drought stress
Experimental: Use a 6-mesh screen as a container for hydroponic culture of wheat, 50 grains per screen, replace the ½ Hoagland nutrient solution once every two days, spray 2-amino-3-hydroxy-3-methylbutyric acid solutions at2-amino-3-hydroxy-3-methylbutyric acid concentrations of 0, 100 and 1,000 nM when the wheat grows to the stage of two leaves and one shoot, and meanwhile, add 0.02% Tween 20 as a surfactant; after two days of continuous spray, replace the hydroponic nutrient solution with a ½ Hoagland nutrient solution containing 25% PEG-6000 for stress treatment,rewater after 6 d of drought stress, recover growth in a normal nutrient solution for 7 d, then observe and determine the drought damage index, and determine the root length and biomass.
The manifestation features after drought damage of leaves are similar to those after salt damage. By taking reference to the salt damage evaluation indexes, drought damage rate and drought damage index are introduced.

[3] = 0.1 nM sprayed twice, tobacco 15 days after TSWV inoculation
[4] = 1 nM sprayed twice, tobacco 15 days after TSWV inoculation
[5] = concentration range 0.1-10 nM, tobacco, TSWV

| SMILES | Disease index [1, 3] | Viral protein content ([1]; 0.1 nM) | Relative immune effect ([1]; 0.1 nM, tobacco, TSWV) | Disease index [1, 4] | Viral protein content ([1]; 1 nM) | Relative immune effect ([1]; 1 nM, tobacco, TSWV) | Relative immune effect ([1]; 10 nM, tobacco, TSWV) | Disease index [1, 5] | Relative immune effect [1, 5] | Drought damage index ([2]; 100 nM) | Dry weight, overground part ([2]; 100 nM) | Dry weight, underground part ([2]; 100 nM) | Fresh weight, overground part ([2]; 100 nM) | Fresh weight, underground part ([2]; 100 nM) | Root length ([2]; 100 nM) | Decrease of drought damage index ([2]; 1,000 nM) | Increase of fresh weight of the overground part ([2]; 1,000 nM) | Increase of fresh weight of the underground part ([2]; 1,000 nM) | Increase of root length of wheat seedlings ([2]; 1,000 nM) | Drought damage index ([2]; 1,000 nM) | further results |
| --- | --- | --- | --- | --- | --- | --- | --- | --- | --- | --- | --- | --- | --- | --- | --- | --- | --- | --- | --- | --- | --- |
| CC(c1ccc(O)cc1)C(N)C(=O)O (centres unmarked) [2-amino-3-(4-hydroxyphenyl) butyric acid] | 36.62 ± 0.87 b | 0.34 ± 0.004 b | 52.54% | 29.83 ± 2.31 c | 0.28 ± 0.012 c | 61.34% | 67.24% | lower than 50 | more than 50% | 47% | 0.83 ± 0.01a g | 0.36 ± 0.01a g | 7.34 ± 0.18b g | 3.70 ± 0.03b g | 14.02 ± 0.03a cm | 49% | 45.66% | 57.93% | 11.47% | 25% | Dry weight, overground part ([2]; 1,000 nM): 0.93 ± 0.05a g; Dry weight, underground part ([2]; 1,000 nM): 0.39 ± 0.01a g; Fresh weight, overground part ([2]; 1,000 nM): 8.90 ± 0.15a g; Fresh weight, underground part ([2]; 1,000 nM): 4.58 ± 0.01a g; Root length ([2]; 1,000 nM): 14.67 ± 007a cm |
| CC(C)(O)C(N)C(=O)O (centres unmarked) [2-amino-3-hydroxy-3-methylbutyric acid] | 58.64 ± 2.31 b | 0.41 ± 0.029 b | 34.48% | 40.74 ± 3.02 c | 0.30 ± 0.012 c | 54.48% | 67.59% | lower than 60 | more than 30% | 45% | 0.80 ± 0.01b g | 0.33 ± 0.01a g | 7.27 ± 0.02b g | 3.65 ± 0.01b g | 13.94 ± 0.03a cm | 51% | 44.92% | 55.02% | 11.30% | 26% | Dry weight, overground part ([2]; 1,000 nM): 0.92 ± 0.05a g; Dry weight, underground part ([2]; 1,000 nM): 0.37 ± 0.01a g; Fresh weight, overground part ([2]; 1,000 nM): 8.84 ± 0.09a g; Fresh weight, underground part ([2]; 1,000 nM): 4.48 ± 0.02a g; Root length ([2]; 1,000 nM): 14.58 ± 0.01a cm |
